Data on two compounds can be found in patent US12697330B2, “Therapeutic methods using vadadustat” (Akebia Therapeutics, Inc., priority 2021, dated 2026).

Each structure is given as a SMILES string.

Assay type in all cases: in vivo, human
One data set has as its system healthy adults. Briefly: Drug interaction study with co-administration of vadadustat in healthy adults. To be noted: with probenecid, an inhibitor of UGT and OAT1/3 transporters. An excerpt: Sulfasalazine. Other Breast Cancer Resistance Protein Substrates. and Probenecid. Exposures to sulfasalazine (moderately) and mesalamine (mildly) were increased with co-administration of vadadustat based on a study in healthy adults. In subjects taking vadadustat, sulfasalazine and other clinically relevant substrates of the breast cancer resistance protein (BCRP) transporter (e.g., sulfasalazine, methotrexate, mitoxantrone, imatinib, irinotecan, lapatinib, topotecan, tenofovir, glecaprevir, pibrentasvir, or sofosbuvir), caution should be taken during the study. Probenecid, an inhibitor of UDP-glucuronosyltransferase (UGT) and the organic anion transporter (OAT)1/3 transporters, increased vadadustat area under the curve and is prohibited during the study.

The next data set deals with hemodialysis subjects. Briefly: Main Study: vadadustat versus epoetin alfa in hemodialysis subjects (Hb, ESA/RBC rescue, EPO levels). An excerpt: The primary efficacy endpoint was to assess the mean change in Hb between baseline and the PEP (Weeks 10 to 12) in hemodialysis subjects.
The first key secondary efficacy endpoint was the proportion of subjects with Hb values within the target range (10.0 to 11.0 g/dL, inclusive) at the PEP (Weeks 10 to 12).
The second key secondary endpoint was the mean change in Hb from PEP (average Hb from Weeks 10 to 12) to the SEP (average Hb from Weeks 18 to 20) for subjects who transitioned to TIW vadadustat dosing. In the Main Study, the change in Hb from PEP to SEP for the 17 subjects who switched from QD to TIW was −0.4 g/dL.

The nature of data set [1]: Phase 1b study: pharmacokinetics of vadadustat and its metabolites in plasma of hemodialysis subjects with anemia associated with CKD. On the procedure: The primary objective of the study was to assess the pharmacokinetics (PK) of vadadustat 600, 750, and 900 mg daily, and IV ESA (darbepoetin alfa or epoetin alfa) in hemodialysis subjects with anemia associated with CKD. Additional objectives included to evaluate the pharmacodynamics (PD) of vadadustat 600, 750, and 900 mg daily, and IV ESA (darbepoetin alfa or epoetin alfa) in hemodialysis subjects with anemia associated with CKD and to assess the safety and tolerability of vadadustat 600, 750, and 900 mg daily and IV ESA (darbepoetin alfa or epoetin alfa) in hemodialysis subjects with anemia associated with CKD.
Study Design. This was a Phase 1b, randomized, open-label study to evaluate the PK, PD, safety, and tolerability of vadadustat 600, 750, or 900 mg daily, or ESA (darbepoetin alfa or epoetin alfa) in hemodialysis subjects with anemia associated with CKD. The study included a 28-day Screening and Randomization period, a 10-day Treatment Period, and a 30-day Safety Follow up Period after the last dose of study drug (vadadustat or ESA). For subjects randomized to vadadustat, study duration also included an ESA washout period of a minimum of 5 days for epoetin alfa or 9 days for darbepoetin alfa or 9-day ESA Washout period prior to dosing on Day 1.
A total of 46 subjects were enrolled in the study. Written informed consent were obtained before any screening procedures were performed. Subjects were screened within 28 days prior to randomization. Eligible subjects were randomized in a 2:2:2:1 ratio to 1 of 4 treatment groups (600, 750, or 900 mg vadadustat QD, or ESA. Randomized subjects began their 10-day Treatment Period within 36 days of initiating screening.
Eligible subjects were randomly assigned in a 2:2:2:1 ratio to 1 of 4 treatment groups: Group 1—vadadustat 600 mg once daily (QD); Group 2—vadadustat 750 mg QD; Group 3—vadadustat 900 QD; and Group 4—IV ESA. Randomization was stratified by the mean weekly ESA dose calculated over a period of 8 weeks prior to the randomization visit. For darbepoetin, the groups were divided into low dose darbepoetin alfa group (<0.5 μg/kg/week) and high dose darbepoetin alfa group (>0.5 to <1.5 μg/kg/week). For epoetin, the groups were divided into low dose epoetin alfa group (≤90 U/kg/week) and high dose epoetin alfa group (>90 to <300 U/kg/week).
Subjects began dosing on Day 1 and took vadadustat at approximately the same time each day for a total of 10 days. On Day 1 and Day 8, subjects took vadadustat after all predose procedures are completed and within 30 minutes prior to the start of dialysis so that the 1-hour post dose blood sample for PK and PD was collected during dialysis. Vadadustat could be taken with or without food. Subjects were instructed to make every effort to take the drug consistently, either with or without food. Subjects were instructed to swallow the tablets whole with water.
PK and EPO Sample. For each vadadustat treatment group, blood samples for vadadustat PK (and its metabolites) and EPO were collected at the following time points: Day 1: predose, and at 1, 2, 3, 4, 5, 8, and 11 hours post dose; Day 2: 24 hours (−2 hours) post Day 1 dose; Day 6: blood sample for EPO analysis only was collected predose on Day 6; Day 8: predose, and at 1, 2, 3, 4, 5, 8, 11 hours post dose, Day 10 or EOT: predose. For the ESA treatment group, blood samples for analysis of EPO were collected at the following time points: Day 1: predose, and at 0.25, 1, 2, 3, 4, 5, 8, and 11 hours post dose; Day 2: 24 hours (−2 hours) post Day 1 dose.
Primary Endpoints. […]

The next data set relates to Hb. The experiment in a line: Phase 1b study: pharmacodynamics, Hb, reticulocytes, iron indices, hepcidin. To be noted: 10-day Treatment period. An excerpt:
PD Sampling. For all vadadustat and ESA treatment groups, in addition to EPO, blood samples for Hb, reticulocytes and iron indices for PD analyses were collected on Day 1, Day 6 and Day 10. Hepcidin were collected predose on Day 1, Day 6, and Day 10 for PD analysis.
Secondary Endpoints. For each treatment group, PD parameters included, but were not limited to, as deemed appropriate: hepcidin, erythropoietin (EPO), iron indices (iron, ferritin, total iron-binding capacity [TIBC], TSAT), Hb, and reticulocytes.

Data set [2] deals with total iron binding capacity (TIBC). Briefly: Phase 2a clinical trials in stage 3, 4, or 5 CKD patients: iron-related parameters.

Broadly, the Tmax is the time from dosing to the highest level.

Take `O=C(O)CNC(=O)c1ncc(-c2cccc(Cl)c2)cc1O` [vadadustat, {[5-(3-chlorophenyl)-3-hydroxypyridine-2-carbonyl]amino}acetic acid]: the “vadadustat area under the curve” value in the data set on healthy adults is on record as “increased”. In addition, the “subjects receiving ESA administration as rescue” value in the data set with hemodialysis subjects (Baseline (inclusive) to Week 12 (inclusive), compared to epoetin alfa treated subjects) is given as “more”. In addition, the “subjects receiving any ESA administration” value with hemodialysis subjects (Baseline (inclusive) to Week 20 (inclusive), compared to epoetin alfa treated subjects) is recorded as “more”. Also, in the data set with hemodialysis subjects (Main Study, 17 subjects who switched from QD to TIW), the “change in Hb from PEP (Weeks 10 to 12) to SEP (Weeks 18 to 20)” value is -0.4 g/dL. Also, the “mean change from baseline in Hb” value with hemodialysis subjects (Main Study, baseline to PEP (Weeks 10 to 12), compared to epoetin alfa treatment group, throughout) is “numerically lower”. The “mean (SD) Hb overall at Weeks 10 to 12” value with hemodialysis subjects (Main Study, compared to epoetin alfa) was “lower”. In addition, in the data set with hemodialysis subjects (Main Study, compared to epoetin alfa treatment group), the “mean change in Hb between baseline and the SEP” value is given as “lower”. Besides, in the data set with hemodialysis subjects (across treatment groups, all study periods), the “proportion of subjects with RBC transfusion and RBC transfusion as rescue” value is reported as “similar”. In addition, the “change from baseline in Hb” value is recorded as “decrease from baseline in Hb up to Week 10” in the data set on hemodialysis subjects (high epoetin alfa stratum, vadadustat 300 mg, after Week 10 Hb began to return towards baseline) and “no decrease from baseline in Hb was observed” in the data set on hemodialysis subjects (low epoetin alfa stratum, except for the vadadustat 300 mg group throughout treatment). Also, the “number of subjects within target Hb range” value in the data set with hemodialysis subjects (high epoetin alfa stratum, vadadustat groups (particularly 300 mg) compared to epoetin alfa treatment group) is on record as “numerically lower”. Besides, the “proportion of subjects with Hb values within the target range (10.0 to 11.0 g/dL, inclusive) at Weeks 10 to 12” value with hemodialysis subjects (vadadustat 300 mg group of the high epoetin alfa stratum, lowest proportion) is 8.3%. In addition, the “vadadustat exposure (AUC0-24 and Cmax) versus dose” value in data set [1] (Day 1 and Day 8) is listed as “dose-dependent increase”. In addition, the “exposure for vadadustat, as measured by AUC0-24, versus dose” value in data set [1] (Day 1 dosing, 600 to 750 to 900 mg) is “increased with increasing dose”. For the same compound, the “Mean apparent total body clearance (CL/F) values across doses” value in data set [1] (Day 8, 600, 750, 900 mg) is listed as “similar”. Moreover, in data set [1] (human, plasma, oral, 600, 750, and 900 mg groups, Day 1 and Day 8, during the dialysis, read-out: median Tmax of vadadustat), the Tmax lay within 2 to 3 h. Also, the accumulation versus dose result in data set [1] (most pronounced in the 900 mg vadadustat treatment group) was “dose-dependent increase in accumulation”. Besides, the “mean Hb levels versus dose” value in the data set on Hb is reported as “not a dose-dependent increase”.

On to `O=C(O)CNC(=O)c1ncc(-c2cccc(Cl)c2)cc1O` [Compound 1, {[5-(3-chlorophenyl)-3-hydroxypyridine-2-carbonyl]amino}acetic acid], for which, in data set [2], the TIBC versus dose entry is reported as “dose-related increase”, the “serum iron levels with the increase in TIBC” value is “not associated with an increase in serum iron levels” and the “transferrin saturation (TSAT)” value was “decrease”. Besides, in data set [2] (6 weeks post administration, compared to placebo treated patients), the “total iron binding capacity (TIBC) levels” value is “increase”.
